Source: US10641776B2, “Methods for measuring binding and cellular engagement of ligands with target proteins” (EUROFINS DISCOVERX CORPORATION, priority 2015, dated 2020)
pEC50, pIC50: −log10 of the molar value.

Key:
BRD4(1) bromodomain = BRD4(1) bromodomain (Homo sapiens, UniProt O60885); conditions: HEK293 cells, n=2
From the text: 2. […] 3. […] 4. Count cells. 5. […] 6. […] 7. […] 8. […] 9.

BRD4(1) = BRD4(1) (Homo sapiens, UniProt O60885); conditions: 0-100 micromolar; 1 hour at room temperature; 45° C. for 30s
Method: To carry out the assay, a fusion protein [BRD4(1)-ED], which also contains an NFκB DNA binding domain at the N-terminus, was constructed with BRD4(1) and a ProLabel™ enzyme donor (ED) fragment. […] The incubation was for 1 hour at room temperature. The samples were then heated to 45° C. for 30s. EA was subsequently added into the samples (along with luminescent substrate for beta-galactosidase) and complementation was measured by measuring luminescence.
To carry out the assays, two separate samples were prepared wherein one sample comprises BRD4(1)(fusion) and no inhibitor whereas another sample comprises BRD4(1)(fusion) and an inhibitor. […] Following incubation, samples were exposed to increased temperatures (25° C., 45° C., 50° C. and 55° C. respectively). The samples were then centrifuged to separate the precipitate.
To carry out the experiment, a fusion protein was constructed comprising NFκB-BRD4(1)-ED. […] The samples were then exposed to several temperatures (25° C., 45° C., 50° C. and 55° C. respectively).

c-Myc expression = conditions: Ciceri et al., Nat Chem Biol. 2014; read-out: Published cell potency for reducing c-Myc expression: IC50; cited from earlier work
ABL1 protein kinase = biological target: T1, ABL1 protein kinase (Homo sapiens, UniProt P00519); type: binding; conditions: seven inhibitors; 30 cycles of 7 seconds at 42° C. / 60 seconds at 25° C.
T1 construct: made in house; host or cells: cell extract
T1 sequence (P00519 whole entry): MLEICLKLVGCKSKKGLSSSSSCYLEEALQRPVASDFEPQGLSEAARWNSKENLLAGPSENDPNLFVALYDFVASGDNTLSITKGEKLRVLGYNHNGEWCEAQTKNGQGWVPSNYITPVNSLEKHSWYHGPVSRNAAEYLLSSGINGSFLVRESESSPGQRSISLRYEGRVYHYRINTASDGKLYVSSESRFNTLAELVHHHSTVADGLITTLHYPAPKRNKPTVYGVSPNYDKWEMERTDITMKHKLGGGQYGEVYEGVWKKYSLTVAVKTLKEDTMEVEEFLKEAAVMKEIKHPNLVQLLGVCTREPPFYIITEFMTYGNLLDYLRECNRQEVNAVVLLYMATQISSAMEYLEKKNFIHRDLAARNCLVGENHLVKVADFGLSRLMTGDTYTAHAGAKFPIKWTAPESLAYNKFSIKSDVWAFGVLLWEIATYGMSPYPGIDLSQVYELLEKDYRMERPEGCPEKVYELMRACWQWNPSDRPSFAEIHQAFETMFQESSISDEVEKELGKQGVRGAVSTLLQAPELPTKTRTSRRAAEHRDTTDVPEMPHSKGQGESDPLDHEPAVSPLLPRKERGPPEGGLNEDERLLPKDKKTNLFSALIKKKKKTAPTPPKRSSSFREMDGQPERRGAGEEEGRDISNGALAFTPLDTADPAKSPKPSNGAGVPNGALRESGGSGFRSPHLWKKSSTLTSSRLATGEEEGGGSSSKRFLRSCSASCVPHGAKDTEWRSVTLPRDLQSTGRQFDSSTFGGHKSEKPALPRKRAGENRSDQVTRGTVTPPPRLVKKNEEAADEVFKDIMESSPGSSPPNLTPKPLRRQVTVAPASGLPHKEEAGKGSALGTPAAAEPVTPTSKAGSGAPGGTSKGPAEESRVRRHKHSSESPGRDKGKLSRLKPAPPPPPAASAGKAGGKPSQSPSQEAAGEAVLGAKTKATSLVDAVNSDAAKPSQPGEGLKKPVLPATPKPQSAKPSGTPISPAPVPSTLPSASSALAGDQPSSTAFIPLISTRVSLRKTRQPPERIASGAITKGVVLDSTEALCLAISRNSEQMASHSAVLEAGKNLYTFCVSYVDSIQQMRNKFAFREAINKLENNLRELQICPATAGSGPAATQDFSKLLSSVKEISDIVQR
Method: (§1) Data were fitted with the Hill Equation and EC50s were calculated.
EC50 dose response curves for the seven inhibitors shown on the graph (inhibitor name labels and corresponding curves are in the same left to right order) were measured against ED-tagged ABL1.

G9a catalytic domain = biological target: T2, G9a catalytic domain (Homo sapiens, UniProt Q96KQ7); assay: In-cell pulse thermal denaturation EFC assay, G9a methyltransferase in HEK293 cells; type: cell-based; conditions: 3 hour incubation at 37° C.; single 3 minute denaturation step at 48° C.
T2 sequence (Q96KQ7 1-1210): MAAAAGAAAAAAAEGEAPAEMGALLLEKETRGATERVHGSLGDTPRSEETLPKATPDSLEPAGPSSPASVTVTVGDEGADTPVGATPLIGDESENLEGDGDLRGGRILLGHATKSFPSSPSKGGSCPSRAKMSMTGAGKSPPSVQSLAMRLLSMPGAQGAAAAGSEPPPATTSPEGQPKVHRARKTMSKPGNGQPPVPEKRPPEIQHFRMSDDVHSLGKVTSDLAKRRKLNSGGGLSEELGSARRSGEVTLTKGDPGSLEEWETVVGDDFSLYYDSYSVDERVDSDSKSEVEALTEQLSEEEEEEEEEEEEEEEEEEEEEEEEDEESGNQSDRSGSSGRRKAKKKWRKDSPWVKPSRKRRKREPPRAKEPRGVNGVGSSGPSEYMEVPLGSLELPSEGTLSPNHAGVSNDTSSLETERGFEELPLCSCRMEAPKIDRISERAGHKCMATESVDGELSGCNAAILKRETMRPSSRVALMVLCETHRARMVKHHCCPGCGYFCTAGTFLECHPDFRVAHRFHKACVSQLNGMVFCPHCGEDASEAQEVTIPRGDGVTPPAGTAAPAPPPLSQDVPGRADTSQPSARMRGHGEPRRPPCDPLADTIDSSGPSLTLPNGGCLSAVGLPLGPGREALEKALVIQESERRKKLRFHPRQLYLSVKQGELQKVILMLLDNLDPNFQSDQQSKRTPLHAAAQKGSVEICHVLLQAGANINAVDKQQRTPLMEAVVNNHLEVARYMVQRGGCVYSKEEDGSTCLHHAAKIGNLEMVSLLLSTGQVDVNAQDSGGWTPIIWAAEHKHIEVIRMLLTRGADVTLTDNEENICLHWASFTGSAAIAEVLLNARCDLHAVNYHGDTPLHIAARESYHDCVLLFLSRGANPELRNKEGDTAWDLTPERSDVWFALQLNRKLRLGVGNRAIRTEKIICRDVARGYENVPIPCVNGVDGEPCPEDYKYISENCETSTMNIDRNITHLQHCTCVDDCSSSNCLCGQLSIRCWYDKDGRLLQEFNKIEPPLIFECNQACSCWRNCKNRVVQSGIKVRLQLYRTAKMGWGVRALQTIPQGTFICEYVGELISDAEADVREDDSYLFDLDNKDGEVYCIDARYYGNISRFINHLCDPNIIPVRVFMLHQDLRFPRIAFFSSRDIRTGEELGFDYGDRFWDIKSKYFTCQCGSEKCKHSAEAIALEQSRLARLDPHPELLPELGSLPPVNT
Method: The G9a catalytic domain is expressed with a C-terminal PL tag. A 3 hour incubation with inhibitor at 37° C. is followed by a single 3 minute denaturation step at 48° C.

[1] = biological target: T3, G9a protein methyltransferase (Homo sapiens, UniProt Q96KQ7); assay: Cell-free single-step denaturation EFC binding assay, ED-tagged G9a; conditions: single denaturation step of 3 minutes at 50° C.; signal increase from about 10^2 nM through 10^4 nM
T3 sequence (Q96KQ7 1-1210): T2 sequence (Q96KQ7 1-1210)
Method: as §1
This proof of concept G9a study was performed using a single denaturation step of 3 minutes at 50° C.

H3K9me2 = conditions: Vedadi et al., Nature Chemical Biology 2011; read-out: Published cell potency for reducing H3K9me2: IC50; cited from earlier work
[2] = biological target: MTH1 hydrolase catalytic domain (Homo sapiens, UniProt P36639); assay: In-cell pulse thermal denaturation EFC assay, MTH1 hydrolase in HEK293 cells; type: cell-based; conditions: 3 hours with inhibitor at 37° C.; for pEC50: preliminary protocol
MTH1 [3] = biological target: T4, MTH1 (Homo sapiens, UniProt P36639); conditions: read-out: Published MTH1 potency: Cellular IC50; cited from earlier work
MTH1 [4] = biological target: T4, MTH1; conditions: read-out: Published MTH1 potency: In vitro EC50; cited from earlier work

Cc1sc2c(c1C)C(c1ccc(Cl)cc1)=N[C@@H](CC(=O)OC(C)(C)C)c1nnc(C)n1-2 [JQ1, (6S)-4-(4-Chlorophenyl)-2,3,9-trimethyl-6H-thieno[3,2-f][1,2,4]triazolo[4,3-a][1,4]diazepine-6-acetic acid, 1,1-dimethylethyl ester]
Assay Window (BRD4(1) bromodomain): 3.5 +/− 0.14
Rescue of BRD4(1) fusion protein from heat denaturation, dose response (BRD4(1)): rescue the fusion protein from denaturation in a dose-dependent manner
pIC50 (c-Myc expression): ~7.00

CC(C)[C@H](CO)Nc1nc(Nc2ccc(C(=O)O)c(Cl)c2)c2ncn(C(C)C)c2n1 [purvalanol B]
Affinity rank order for ABL1 from dose response curves (ABL1 protein kinase): lowest affinity

COc1cc2c(NC3CCN(C(C)C)CC3)nc(C3CCCCC3)nc2cc1OCCCN1CCCC1 [UNC0538, 2-Cyclohexyl-6-methoxy-N-[1-(1-methylethyl)-4-piperidinyl]-7-[3-(1-pyrrolidinyl)propoxy]-4-quinazolinamine]
Assay Window (G9a catalytic domain): 5.0
Protection against denaturation of G9a, dose response [1]: increases in a dose-dependent manner
pIC50 (H3K9me2): ~7.09

COc1ccc2nc3c(c(C)nn3C)c(NCCOCCO)c2c1 [SCH 51344]
Assay Window ([2]; denaturation 45° C./1.5 min.): 1.9
pEC50 ([2]; denaturation 45° C./1.5 min.): 6.43
Assay Window ([2]; denaturation 48° C./3.0 min.): 9.7
pEC50 ([2]; denaturation 48° C./3.0 min.): 5.34
pIC50 (MTH1 [3]): > 4.70
pEC50 (MTH1 [4]): 7.30
